Tests used:
human DAT [1] = biological target: T1, human DAT (Homo sapiens, UniProt Q01959); experiment: [3H]dopamine uptake inhibition, intact cells; assay type: cell-based
T1 construct: gene SLC6A3; full-length codon-optimized human DAT with N-terminal mScarlet-I tag (subcloned from EYFP-DAT), stably expressed in TAAR1 KO HEK293 cells

human DAT [2] = biological target: T1, human DAT; experiment: […]RTI-55 competition binding, cell membranes; settings: read-out: Inhibition of [^125I]RTI-55 Binding pKi ± SD (n) (converted)
[3] = substrate: NCCc1ccc(O)c(O)c1; experiment: cells, lysate or membranes; settings: TAAR1-/- DAT cells, vehicle pretreatment, 10 min uptake; labelled compound; n=4

CC[C@@H](C[C@H]1COC(N)=N1)c1ccccc1 [RO5256390]
Inhibition of [^3H]DA Uptake pIC50 ± SD (n) (human DAT [1]; 20 nM [3H]DA, 10 min preincubation, 10 min uptake, 25 °C, Krebs-HEPES buffer, n=6): 5.73 ± 0.23

CCN(C[C@H]1COC(N)=N1)c1ccccc1 [RO5166017]
IC50 (human DAT [1]; read-out: Inhibition of [^3H]DA Uptake pIC50 ± SD (n) (converted)): 17.4 µM
Ki (human DAT [2]): 21.9 µM

B1: human DAT (Homo sapiens) (protein)
chain: MSKSKCSVGLMSSVVAPAKEPNAVGPKEVELILVKEQNGVQLTSSTLTNPRQSPVEAQDRETWGKKIDFLLSVIGFAVDLANVWRFPYLCYKNGGGAFLVPYLLFMVIAGMPLFYMELALGQFNREGAAGVWKICPILKGVGFTVILISLYVGFFYNVIIAWALHYLFSSFTTELPWIHCNNSWNSPNCSDAHPGDSSGDSSGLNDTFGTTPAAEYFERGVLHLHQSHGIDDLGPPRWQLTACLVLVIVLLYFSLWKGVKTSGKVVWITATMPYVVLTALLLRGVTLPGAIDGIRAYLSVDFYRLCEASVWIDAATQVCFSLGVGFGVLIAFSSYNKFTNNCYRDAIVTTSINSLTSFSSGFVVFSFLGYMAQKHSVPIGDVAKDGPGLIFIIYPEAIATLPLSSAWAVVFFIMLLTLGIDSAMGGMESVITGLIDEFQLLHRHRELFTLFIVLATFLLSLFCVTNGGIYVFTLLDHFAAGTSILFGVLIEAIGVAWFYGVGQFSDDIQQMTGQRPSLYWRLCWKLVSPCFLLFVVVVSIVTFRPPHYGAYIFPDWANALGWVIATSSMAMVPIYAAYKFCSLPGSFREKLAYAIAPEKDRELVDRGEVRQFTLRHWLKV
Km [3]: 0.631 ± 0.26 µM
Vmax [3]: 1.63e-06 µmol/min/mg
